From ChEMBL document CHEMBL5042488, “Synthesis, biological, and structural explorations of a series of μ-opioid receptor (MOR) agonists with high G protein signaling bias” (Eur J Med Chem, 2022)
The source made the active and inactive calls.

Key:
[1] = molecular target: T1, Mu-type opioid receptor (Homo sapiens, UniProt P35372); assay: Agonist activity at mu opioid receptor (unknown origin) assessed as increase in cAMP level incubated for 40 mins by spectrophotometry; type: functional
[2] = molecular target: T1, Mu-type opioid receptor; assay: Agonist activity at mu opioid receptor (unknown origin) assessed as beta arrestin-2 recruitment incubated for 3 days by PathHunter assay; type: functional
[3] = Metabolic stability in human liver microsomes assessed as intrinsic clearance preincubated for 10 mins followed by NADPH addition and measured after 60 mins by LC-MS/MS analysis; type: ADME, Microsome; details: time 70 min, read-out: CLH
[4] = molecular target: T1, Mu-type opioid receptor; assay: Agonist activity at mu opioid receptor (unknown origin) assessed as maximal cAMP level incubated for 40 mins by spectrophotometry relative to DAMGO; type: functional; details: filed as agonist
[5] = molecular target: T1, Mu-type opioid receptor; assay: Agonist activity at mu opioid receptor (unknown origin) assessed as maximal beta arrestin-2 recruitment incubated for 3 days by PathHunter assay relative to DAMGO; type: functional; details: time 3.0 day
[6] = Cmax in Sprague-Dawley rat at 2 mg/kg, iv by LC-MS/MS analysis; type: ADME, organism-based; set-up: route intravenous, dose 2 mg/kg; details: in vivo
[7] = molecular target: Cytochrome P450 2C19 (Homo sapiens, UniProt P33261); assay: Inhibition of CYP2C19 (unknown origin); type: ADME
Cytochrome P450 2C19, sequence (P33261 whole entry): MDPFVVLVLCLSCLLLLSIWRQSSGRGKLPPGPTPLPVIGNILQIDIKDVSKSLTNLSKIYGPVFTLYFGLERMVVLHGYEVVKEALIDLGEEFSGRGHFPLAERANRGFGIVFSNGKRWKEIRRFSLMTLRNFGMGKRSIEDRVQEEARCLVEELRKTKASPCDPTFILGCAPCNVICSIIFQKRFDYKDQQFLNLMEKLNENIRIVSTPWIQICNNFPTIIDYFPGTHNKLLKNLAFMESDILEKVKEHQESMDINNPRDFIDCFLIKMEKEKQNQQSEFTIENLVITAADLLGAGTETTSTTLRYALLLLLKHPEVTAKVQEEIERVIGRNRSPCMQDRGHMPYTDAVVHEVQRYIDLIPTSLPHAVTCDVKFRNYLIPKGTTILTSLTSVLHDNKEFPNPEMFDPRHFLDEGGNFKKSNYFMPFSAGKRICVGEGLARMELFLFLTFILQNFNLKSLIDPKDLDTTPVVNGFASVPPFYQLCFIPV

[8] = test system: Rattus norvegicus; assay: Antinociceptive activity in sc dosed Sprague-Dawley rat assessed as increase in thermal pain threshold measured after 30 mins by Hot-plate test; type: functional; details: 0.5 h
[9] = Half life in Sprague-Dawley rat at 2 mg/kg, iv by LC-MS/MS analysis; type: ADME, organism-based; details: in vivo
[10] = Plasma protein binding in rat plasma assessed as unbound fraction; type: ADME, cell-free
[11] = Toxicity in Sprague-Dawley rat assessed as effect on respiration at 0.3 mg/kg, sc; type: organism-based; details: in vivo
[12] = Toxicity in Sprague-Dawley rat model assessed as effect on blood oxygen levels at […], sc measured after 30 mins by blood gas analyzer; type: organism-based; details: in vivo, 0.5 h, dose 0.32 mg/kg
[13] = molecular target: T1, Mu-type opioid receptor; assay: Displacement of [3H]-Diprenorphine from human mu opiod receptor expressed in CHO cells incubated for 1 hr by competition binding assay; type: cell-based
[14] = MRT in Sprague-Dawley rat at 2 mg/kg, iv by LC-MS/MS analysis; type: ADME, organism-based; details: in vivo
[15] = Drug concentration in Sprague-Dawley rat brain at […], iv measured after 5 mins by LC-MS/MS analysis; type: ADME, organism-based; details: dose 0.25 mg/kg, read-out: Drug uptake
[16] = molecular target: Delta-type opioid receptor (Homo sapiens, UniProt P41143); assay: Agonist activity at human delta opioid receptor expressed in HEK293 assessed as increase in calcium mobilization incubated for 60 mins by FLIPR assay; type: functional, cell-based
Delta-type opioid receptor, sequence (P41143 whole entry): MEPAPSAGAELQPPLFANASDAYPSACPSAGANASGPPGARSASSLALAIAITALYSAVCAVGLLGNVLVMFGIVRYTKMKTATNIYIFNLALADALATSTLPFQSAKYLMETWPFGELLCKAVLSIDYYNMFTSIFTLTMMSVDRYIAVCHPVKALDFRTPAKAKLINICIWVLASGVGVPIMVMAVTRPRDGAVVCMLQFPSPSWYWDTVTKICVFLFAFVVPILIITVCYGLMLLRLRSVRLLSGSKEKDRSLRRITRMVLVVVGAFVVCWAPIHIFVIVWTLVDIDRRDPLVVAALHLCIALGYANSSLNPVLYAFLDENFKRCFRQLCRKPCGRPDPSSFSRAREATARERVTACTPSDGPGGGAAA

[17] = Ratio of drug concentration in brain to plasma of Sprague-Dawley rat at 2 mg/kg, iv measured at […] by LC-MS/MS analysis; type: ADME, organism-based; details: time 0.25 hrs
[18] = Drug concentration in Sprague-Dawley rat liver at […],iv measured after 30 mins by LC-MS/MS analysis; type: ADME, organism-based; details: in vivo, 0.5 h, dose 0.25 mg/kg
[19] = AUClast in Sprague-Dawley rat at 2 mg/kg, iv by LC-MS/MS analysis; type: ADME, organism-based; set-up: time 0 - last, route intravenous, dose 2 mg/kg; details: in vivo
[20] = molecular target: Kappa-type opioid receptor (Homo sapiens, UniProt P41145); assay: Agonist activity at human kappa opioid receptor expressed in HEK293 assessed as increase in calcium mobilization incubated for 60 mins by FLIPR assay; type: functional, cell-based
Kappa-type opioid receptor, sequence (P41145 whole entry): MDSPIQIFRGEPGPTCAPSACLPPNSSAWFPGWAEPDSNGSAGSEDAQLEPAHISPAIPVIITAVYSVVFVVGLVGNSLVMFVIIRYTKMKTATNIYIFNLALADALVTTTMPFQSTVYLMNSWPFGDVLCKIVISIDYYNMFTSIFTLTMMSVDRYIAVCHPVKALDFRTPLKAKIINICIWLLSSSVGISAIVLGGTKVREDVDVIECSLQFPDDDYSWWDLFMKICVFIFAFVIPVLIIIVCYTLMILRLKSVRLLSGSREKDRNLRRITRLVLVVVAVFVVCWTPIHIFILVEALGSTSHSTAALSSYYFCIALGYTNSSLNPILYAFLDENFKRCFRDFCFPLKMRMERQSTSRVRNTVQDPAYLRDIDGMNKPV

[21] = Metabolic stability in dog liver microsomes assessed as intrinsic clearance preincubated for 10 mins followed by NADPH addition and measured after 60 mins by LC-MS/MS analysis; type: ADME, Canis lupus familiaris, Microsome; details: time 70 min, read-out: CLH
[22] = test system: Rattus norvegicus; assay: Antinociceptive activity in Sprague-Dawley rat incision pain model assessed as increase in paw withdrawal latency at 0.125 to 0.5 mg/kg, sc measured after 30 mins by Von Frey filament assay; type: functional; details: dose 0.125-0.5 mg/kg
[23] = Apparent permeability across apical to basal membrane in human Caco-2 cells; type: ADME, cell-based
[24] = test system: Rattus norvegicus; assay: Antinociceptive activity in Sprague-Dawley rat assessed as increase in paw withdrawal latency at 0.3 mg/kg, sc measured after 30 mins by Hot-plate test; type: functional, organism-based
[25] = Plasma protein binding in human plasma assessed as unbound fraction; type: ADME, cell-free
[26] = AUC(0 to infinity) in Sprague-Dawley rat at 2 mg/kg, iv by LC-MS/MS analysis; type: ADME, organism-based; set-up: route intravenous, time infinity, dose 2 mg/kg; details: in vivo
[27] = Apparent volume of distribution in Sprague-Dawley rat at 2 mg/kg, iv by LC-MS/MS analysis; type: ADME, organism-based; details: in vivo, read-out: Vz
[28] = molecular target: T1, Mu-type opioid receptor; assay: Agonist activity at human mu opioid receptor expressed in HEK293 assessed as increase in calcium mobilization incubated for 60 mins by FLIPR assay; type: functional, cell-based
[29] = Metabolic stability in rat liver microsomes assessed as intrinsic clearance preincubated for 10 mins followed by NADPH addition and measured after 60 mins by LC-MS/MS analysis; type: ADME, Microsome; details: time 70 min, read-out: CLH
[30] = Plasma protein binding in dog plasma assessed as unbound fraction; type: ADME, cell-free, Canis lupus familiaris
[31] = Half life of compound; type: physicochemical
[32] = molecular target: Cytochrome P450 2C9 (Homo sapiens, UniProt P11712); assay: Inhibition of CYP2C9 (unknown origin); type: ADME
Cytochrome P450 2C9, sequence (P11712 whole entry): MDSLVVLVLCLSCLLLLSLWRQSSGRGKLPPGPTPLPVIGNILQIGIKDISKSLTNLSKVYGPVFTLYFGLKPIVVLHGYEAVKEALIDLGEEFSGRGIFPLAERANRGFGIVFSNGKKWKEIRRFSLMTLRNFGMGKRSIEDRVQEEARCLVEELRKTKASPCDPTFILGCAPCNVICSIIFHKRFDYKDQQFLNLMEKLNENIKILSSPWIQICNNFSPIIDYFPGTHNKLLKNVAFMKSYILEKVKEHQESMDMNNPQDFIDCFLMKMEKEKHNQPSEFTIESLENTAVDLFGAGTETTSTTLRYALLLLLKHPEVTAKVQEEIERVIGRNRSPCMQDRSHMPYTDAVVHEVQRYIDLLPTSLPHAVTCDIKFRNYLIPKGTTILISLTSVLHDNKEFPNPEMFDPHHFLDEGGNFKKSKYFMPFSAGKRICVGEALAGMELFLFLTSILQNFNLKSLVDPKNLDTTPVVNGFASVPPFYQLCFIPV

[33] = test system: Rattus norvegicus; assay: Antinociceptive activity in Sprague-Dawley rat assessed as increase in paw withdrawal latency at 1 mg/kg, sc measured after 30 mins by Hot-plate test; type: functional, organism-based
[34] = Toxicity in Sprague-Dawley rat assessed as effect on blood oxygen levels at 1.56 mg/kg, sc measured after 30 mins by blood gas analyzer; type: organism-based; details: in vivo, 0.5 h

T1 sequence (P35372 whole entry): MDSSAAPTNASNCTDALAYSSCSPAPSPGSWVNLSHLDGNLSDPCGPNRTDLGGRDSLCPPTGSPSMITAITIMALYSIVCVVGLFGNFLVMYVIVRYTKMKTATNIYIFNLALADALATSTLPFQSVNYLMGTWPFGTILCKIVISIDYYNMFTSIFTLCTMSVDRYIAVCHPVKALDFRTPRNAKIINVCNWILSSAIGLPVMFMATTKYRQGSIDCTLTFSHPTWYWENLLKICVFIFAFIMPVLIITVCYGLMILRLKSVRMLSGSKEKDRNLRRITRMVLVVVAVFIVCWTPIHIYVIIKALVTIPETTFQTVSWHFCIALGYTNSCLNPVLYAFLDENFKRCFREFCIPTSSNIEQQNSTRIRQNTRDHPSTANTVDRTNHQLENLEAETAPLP

Cc1cccc(CNCC[C@@]2(c3ccccn3)CCOC3(CCOC3)C2)c1 (stereo not given in full)
EC50 [1]: 6.1 nM | EC50 [2]: > 30000 nM | CLint scaled [3]: 8.8 mL/min/kg | Emax [4]: 88.9%

Fc1ccc([C@]2(CCNCc3scc4c3CCCC4)CCO[C@]3(CCOC3)C2)nc1
EC50 [1]: 0.2 nM | EC50 [2]: > 30000 nM | CLint scaled [3]: 338 mL/min/kg | Emax [4]: 99.5%

C[C@@H](Cc1ccsc1)NC(=O)NC[C@H](Cc1ccc(O)cc1)N(C)C
Emax [5]: 5% | CLint scaled [3]: < 8.6 mL/min/kg | Emax [4]: 89.2%

Fc1ccc([C@]2(CCNCc3scc4c3CCC4)CCO[C@]3(CCOC3)C2)nc1
CLint scaled [3]: 108 mL/min/kg | Emax [4]: 95.1%

Fc1ccc([C@]2(CCNCc3scc4c3COC4)CCOC3(CCOC3)C2)cc1 (stereo not given in full)
EC50 [1]: 6.8 nM | EC50 [2]: > 30000 nM | CLint scaled [3]: 191 mL/min/kg

COc1ccsc1CNCC[C@@]1(c2ccccn2)CCO[C@@]2(CCOC2)C1
EC50 [2]: > 30000 nM | Emax [4]: 66.3%

Clc1ccc(CNCC[C@@]2(c3ccccn3)CCOC3(CCOC3)C2)s1 (stereo not given in full)
Emax [5]: 2.3% | EC50 [1]: 22.3 nM | EC50 [2]: > 30000 nM | Emax [4]: 93.3%

Fc1ccc([C@]2(CCNCc3cccc(Cl)c3)CCO[C@]3(CCOC3)C2)nc1
Emax [5]: 1.6% | Cmax [6]: 252 ng/mL | IC50 [7]: > 33000 nM | ED50 [8]: 0.23 mg/kg | half-life [9]: 119 min | fraction unbound [10]: 0.33 | Activity [11]: Non-Toxic | EC50 [1]: 0.35 nM | Activity [12]: 92.17% | Ki [13]: 0.514 nM | MRT [14]: 48.6 min | concentration at 5 min [15]: 172 ng/g | EC50 [16]: > 10000 nM | Kp at […] [17]: 4.61 | Drug uptake [18]: 58.6% | AUC(0-t) [19]: 132 ng·h/mL | EC50 [20]: > 10000 nM | CLint scaled [21]: 152 mL/min/kg | Activity [22]: 50% | Papp A→B [23]: 5.2 ×10⁻⁶ cm/s | Activity [24]: Active | fraction unbound [25]: 0.34 | AUC [26]: 134.01 ng·h/mL | Vd [27]: 10.8 L/kg | Emax [4]: 91.4% | EC50 [28]: 5.09 nM | CLint scaled [29]: 176 mL/min/kg | fraction unbound [30]: 0.17 | half-life [31]: 7.16 min

Clc1cccc(CNCC[C@@]2(c3ccccn3)CCOC3(CCOC3)C2)c1 (stereo not given in full)
EC50 [1]: 2.6 nM | EC50 [2]: > 30000 nM | CLint scaled [3]: 22.1 mL/min/kg | Emax [4]: 86.4%

Fc1ccc([C@]2(CCNCc3cncc(Cl)c3)CCOC3(CCOC3)C2)cc1 (stereo not given in full)
EC50 [1]: 12.8 nM | EC50 [2]: > 30000 nM | Emax [4]: 90.8%

c1ccc([C@]2(CCNCc3scc4c3CCC4)CCO[C@]3(CCOC3)C2)nc1
fraction unbound [10]: 0.58 | EC50 [1]: 0.46 nM | CLint scaled [21]: 203 mL/min/kg | CLint scaled [3]: 49 mL/min/kg | Papp A→B [23]: 2.4 ×10⁻⁶ cm/s | fraction unbound [25]: 0.54 | Emax [4]: 96.9% | CLint scaled [29]: 651 mL/min/kg | fraction unbound [30]: 0.16

COc1ccsc1CNCC[C@@]1(c2ccccn2)CCOC2(CCCC2)C1 [OLICERIDINE]
Emax [5]: 4.6% | Cmax [6]: 249 ng/mL | IC50 [7]: > 50000 nM | ED50 [8]: 0.85 mg/kg | half-life [9]: 72.6 min | fraction unbound [10]: 0.36 | IC50 [32]: > 50000 nM | MRT [14]: 49.2 min | concentration at 5 min [15]: 64.8 ng/g | EC50 [16]: > 10000 nM | Activity [33]: Active | Drug uptake [18]: 23.8% | EC50 [20]: > 10000 nM | CLint scaled [21]: 465 mL/min/kg | Papp A→B [23]: 4.4 ×10⁻⁶ cm/s | fraction unbound [25]: 0.22 | Vd [27]: 6.39 L/kg | Emax [4]: 92.5% | Activity [34]: 87.62% | CLint scaled [29]: 1110 mL/min/kg | fraction unbound [30]: 0.023 | half-life [31]: 6.51 min

C[C@@H](NC(=O)[C@@H](N)Cc1ccc(O)cc1)C(=O)NCC(=O)N(C)[C@@H](Cc1ccccc1)C(=O)NCCO [DAMGO]
half-life [31]: 5.95 min
